Assay results from publication PMC11862611 (RSC Medicinal Chemistry, 2025).

Tests used:
[1] = test system: L. major promastigotes (FV1) WT; experiment: anti-promastigote assay, L. major (resazurin); type: cell-based; conditions: Leishmania major; promastigote parasites (Table 1); read-out: L.mj EC50
Procedure: 4.2.3.1. Anti-promastigote assays
L. major promastigotes (FV1) WT, PX and Δ LCB2 in Schneider’s insect medium (100 μL at 1 × 106 mL−1) were incubated in 96-well plates with compounds in triplicate (amphotericin B and cycloheximide were used as positive controls, and untreated parasites with 1% DMSO as a negative control) at 26 °C for 48 h.
Resazurin Solution (10 μL) was then added and the plate incubated at 26 °C for 4 h prior to measurement using a fluorescence plate reader (555 - 585 nm). EC50 values were calculated using sigmoidal regression analysis (GraphPad Prism). […]
well-1 in a 24-well plate with round cover slips and incubated for 24 h at 37 °C and 5% CO2. […]

[2] = test system: L. major PX promastigotes; experiment: on-target growth inhibition, add-back cell line (PX); type: cell-based, Leishmania major
[3] = biological target: T1, H1 (h) (antagonist radioligand) (Homo sapiens, UniProt P35367); experiment: radioligand displacement assay, H1; type: binding
T1 construct: purchased Eurofins (contract assay); host or cells: cell membrane homogenates
T1 sequence (P35367 whole entry): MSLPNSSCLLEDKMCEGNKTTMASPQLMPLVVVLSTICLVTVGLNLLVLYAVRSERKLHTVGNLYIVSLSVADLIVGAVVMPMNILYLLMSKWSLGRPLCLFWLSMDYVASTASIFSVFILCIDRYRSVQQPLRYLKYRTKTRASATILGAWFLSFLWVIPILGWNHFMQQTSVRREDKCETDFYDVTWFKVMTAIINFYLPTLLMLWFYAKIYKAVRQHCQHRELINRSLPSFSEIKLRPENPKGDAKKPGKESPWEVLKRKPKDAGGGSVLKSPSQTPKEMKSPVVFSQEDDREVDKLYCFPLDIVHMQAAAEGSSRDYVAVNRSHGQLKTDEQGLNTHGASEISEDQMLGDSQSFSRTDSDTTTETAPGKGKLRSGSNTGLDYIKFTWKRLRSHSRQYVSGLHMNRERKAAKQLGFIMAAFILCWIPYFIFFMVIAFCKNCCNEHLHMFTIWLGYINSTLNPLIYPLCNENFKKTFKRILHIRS
Procedure: (§1) 4.2.3.6. Radioligand Binding Assay (Supplemental Figure S3)
(§2) These assays were run by Eurofins under contract to LifeArc FR095-0011887. A representative protocol describing the human histamine H2 receptor (antagonist radioligand) assay is shown below.12 Cell membrane homogenates (24 µg protein) are incubated for 120 min at 22°C with 0.075 nM [125I]APT in the absence or presence of the test compound in a buffer containing 50 mM Na2HPO4/KH2PO4 (pH […]
(§3) 7.4) and 0.05% BSA. […] Following

[4] = biological target: T2, M1 (h) (antagonist radioligand) (Homo sapiens, UniProt P11229); experiment: radioligand displacement assay, M1; type: binding
T2 construct: purchased Eurofins (contract assay); host or cells: cell membrane homogenates
T2 sequence (P11229 1-460): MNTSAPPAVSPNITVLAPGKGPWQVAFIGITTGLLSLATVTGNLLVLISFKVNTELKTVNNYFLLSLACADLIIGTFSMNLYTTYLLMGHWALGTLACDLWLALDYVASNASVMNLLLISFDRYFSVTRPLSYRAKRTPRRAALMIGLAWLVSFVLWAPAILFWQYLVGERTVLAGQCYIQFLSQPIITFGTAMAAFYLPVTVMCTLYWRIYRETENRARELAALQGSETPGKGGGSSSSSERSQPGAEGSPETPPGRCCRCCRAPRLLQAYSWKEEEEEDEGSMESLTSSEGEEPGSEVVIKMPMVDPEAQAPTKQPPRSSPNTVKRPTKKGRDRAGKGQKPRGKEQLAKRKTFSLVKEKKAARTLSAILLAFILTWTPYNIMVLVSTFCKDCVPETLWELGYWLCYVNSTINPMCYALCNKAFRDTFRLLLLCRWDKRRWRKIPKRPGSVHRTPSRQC
Procedure: as §1, §2, §3

[5] = biological target: T3, M4 (h) (antagonist radioligand) (Homo sapiens, UniProt P08173); experiment: radioligand displacement assay, M4; type: binding
T3 construct: purchased Eurofins (contract assay); host or cells: cell membrane homogenates
T3 sequence (P08173 1-479): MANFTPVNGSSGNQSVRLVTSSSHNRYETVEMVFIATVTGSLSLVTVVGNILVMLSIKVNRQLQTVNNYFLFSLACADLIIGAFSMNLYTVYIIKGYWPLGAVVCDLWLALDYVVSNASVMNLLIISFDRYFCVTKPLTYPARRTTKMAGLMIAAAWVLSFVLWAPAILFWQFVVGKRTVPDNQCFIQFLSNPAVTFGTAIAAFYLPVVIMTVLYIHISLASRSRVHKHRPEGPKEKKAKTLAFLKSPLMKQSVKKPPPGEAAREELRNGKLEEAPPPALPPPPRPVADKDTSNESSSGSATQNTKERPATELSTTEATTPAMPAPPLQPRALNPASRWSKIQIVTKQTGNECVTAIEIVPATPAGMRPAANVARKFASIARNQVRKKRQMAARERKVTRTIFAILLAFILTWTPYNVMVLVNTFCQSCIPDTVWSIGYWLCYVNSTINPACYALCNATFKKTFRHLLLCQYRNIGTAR
Procedure: as §1, §2, §3

[6] = biological target: T4, M5 (h) (antagonist radioligand) (Homo sapiens, UniProt P08912); experiment: radioligand displacement assay, M5; type: binding
T4 construct: purchased Eurofins (contract assay); host or cells: cell membrane homogenates
T4 sequence (P08912 1-532): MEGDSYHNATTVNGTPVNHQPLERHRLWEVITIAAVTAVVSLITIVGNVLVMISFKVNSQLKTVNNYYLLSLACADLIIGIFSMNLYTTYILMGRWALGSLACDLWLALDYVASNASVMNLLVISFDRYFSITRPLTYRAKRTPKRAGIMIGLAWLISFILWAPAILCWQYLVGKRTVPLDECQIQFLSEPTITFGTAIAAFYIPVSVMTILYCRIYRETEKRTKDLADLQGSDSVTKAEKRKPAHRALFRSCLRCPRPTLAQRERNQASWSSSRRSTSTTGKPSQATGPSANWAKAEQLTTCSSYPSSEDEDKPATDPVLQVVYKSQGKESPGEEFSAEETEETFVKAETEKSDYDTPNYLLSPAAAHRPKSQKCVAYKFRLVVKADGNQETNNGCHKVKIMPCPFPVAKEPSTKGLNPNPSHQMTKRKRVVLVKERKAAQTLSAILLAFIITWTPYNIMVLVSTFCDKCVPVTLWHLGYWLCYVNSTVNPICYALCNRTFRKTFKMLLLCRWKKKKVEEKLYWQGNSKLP
Procedure: as §1, §2, §3

5-HTB2 receptors = biological target: T5, 5-HTB2 receptors (Homo sapiens, UniProt P41595); experiment: radioligand displacement assay, 5-HT2B; type: binding
T5 construct: purchased Eurofins (contract assay); host or cells: cell membrane homogenates
T5 sequence (P41595 whole entry): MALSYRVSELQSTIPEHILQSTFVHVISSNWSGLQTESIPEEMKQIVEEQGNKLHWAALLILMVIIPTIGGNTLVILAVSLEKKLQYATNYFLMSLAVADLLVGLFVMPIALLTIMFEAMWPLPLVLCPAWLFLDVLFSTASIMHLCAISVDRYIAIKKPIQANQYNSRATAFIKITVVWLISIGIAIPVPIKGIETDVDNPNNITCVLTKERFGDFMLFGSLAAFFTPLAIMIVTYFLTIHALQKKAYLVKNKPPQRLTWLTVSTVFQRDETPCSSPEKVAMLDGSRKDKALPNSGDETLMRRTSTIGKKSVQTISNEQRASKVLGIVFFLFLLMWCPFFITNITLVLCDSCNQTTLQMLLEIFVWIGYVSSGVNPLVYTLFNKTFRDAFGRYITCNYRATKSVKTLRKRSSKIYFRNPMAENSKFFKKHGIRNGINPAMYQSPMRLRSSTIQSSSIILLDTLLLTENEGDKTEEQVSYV
Procedure: as §1, §2, §3

[7] = test system: panel of neurotransmitter receptors; experiment: radioligand displacement assay, whole panel; type: binding, human
Procedure: as §1, §2, §3

[8] = test system: L. amazonensis GFP promastigotes; experiment: mouse model of L. amazonensis infection (ear, IL dosing); type: in vivo, BALB/c mice; conditions: 1.2 mg kg^−1 IL twice a week for 4 weeks
Procedure: Consequently, we used IL dosing for this experiment. To enable direct comparison with CF, the same treatment regimen (dose of 1.2 mg kg^−1via IL injection twice a week for 4 weeks starting on DPI) was used for both compounds.
A Weight variation of mice during 28 days of treatment. B Progression of lesion thickness over 28 day treatment period. C Representative photographs of the infected ear for each group taken after completion of treatment, D parasite burden was evaluated by LDA on 36 days post infection. […]
In vivo assays were conducted as previously reported 1. Two month old BALB/c female mice, weighing 20 - 25 g and of approximately the same age were used for the study. For infection of mice, stationary phase GFP L. amazonensis promastigotes were collected, washed and suspended in sterile PBS. A volume of 10 μl of sterile PBS containing 2 x 10^6 parasites was injected into the right ear. […]
Infected ear thicknesses were measured once or twice a week with a caliper gauge, and the lesion sizes were expressed as the difference between the thickness of infected and non-infected ear. On day 41 animals were sacrificed and the fluorescence measured (485 - 528 nm) and parasite load quantified using a limiting dilution assay (LDA).
Data on lesion progression were analysed for statistical significance by using the Dunnett test as part of the one-way ANOVA (GraphPad Prism 8 software). […]

## C[C@H]1CCCN1CCCO[C@H](c1ccccc1)c1ccc(Cl)cc1 [38l]
[1]
  EC50: 30 nM
[2]
  sensitivity in the add-back cell line (PX): Sensitivity was restored
[3]
  effective binding, radioligand displacement, H1: > 40%
[4]
  effective binding, radioligand displacement, M1: > 40%
[5]
  effective binding, radioligand displacement, M4: > 40%
[6]
  affinity, radioligand displacement, M5: lower affinity
5-HTB2 receptors
  affinity, radioligand displacement, 5-HTB2: lower affinity
[7]
  binding profile across receptor panel: greater selectivity
[8]; 35 days post-infection
  lesion growth trends: similar
[8]; LDA 36 days post infection
  parasitaemia (parasite burden by LDA) versus untreated group: statistically significant reduction
